In ChEMBL document CHEMBL4715821, “Discovery of 4-ethoxy-7H-pyrrolo[2,3-d]pyrimidin-2-amines as potent, selective and orally bioavailable LRRK2 inhibitors” (Bioorg Med Chem Lett, 2018):

Key:
[1] = biological target: Tyrosine-protein kinase Fyn (Homo sapiens) (UniProt P06241); assay: Inhibition of wild-type human partial length FYN (T243 to L534 residues) expressed in bacterial expression system assessed as residual activity at 1 uM by Kinomescan method relative to control
[2] = Unbound fraction in human serum; format: ADME, cell-free
[3] = biological target: Serine/threonine-protein kinase 17A (Homo sapiens) (UniProt Q9UEE5); assay: Inhibition of wild-type human partial length DRAK1 (R32 to E363 residues) expressed in bacterial expression system assessed as residual activity at 1 uM by Kinomescan method
[4] = biological target: Fibroblast growth factor receptor 2 (Homo sapiens) (UniProt P21802); assay: Inhibition of wild type human partial length FGFR2 (D457 to E769 residues) expressed in bacterial expression system assessed as residual activity at 1 uM by Kinomescan method relative to control
Fibroblast growth factor receptor 2 (Homo sapiens), sequence (P21802 22-821 limits assumed): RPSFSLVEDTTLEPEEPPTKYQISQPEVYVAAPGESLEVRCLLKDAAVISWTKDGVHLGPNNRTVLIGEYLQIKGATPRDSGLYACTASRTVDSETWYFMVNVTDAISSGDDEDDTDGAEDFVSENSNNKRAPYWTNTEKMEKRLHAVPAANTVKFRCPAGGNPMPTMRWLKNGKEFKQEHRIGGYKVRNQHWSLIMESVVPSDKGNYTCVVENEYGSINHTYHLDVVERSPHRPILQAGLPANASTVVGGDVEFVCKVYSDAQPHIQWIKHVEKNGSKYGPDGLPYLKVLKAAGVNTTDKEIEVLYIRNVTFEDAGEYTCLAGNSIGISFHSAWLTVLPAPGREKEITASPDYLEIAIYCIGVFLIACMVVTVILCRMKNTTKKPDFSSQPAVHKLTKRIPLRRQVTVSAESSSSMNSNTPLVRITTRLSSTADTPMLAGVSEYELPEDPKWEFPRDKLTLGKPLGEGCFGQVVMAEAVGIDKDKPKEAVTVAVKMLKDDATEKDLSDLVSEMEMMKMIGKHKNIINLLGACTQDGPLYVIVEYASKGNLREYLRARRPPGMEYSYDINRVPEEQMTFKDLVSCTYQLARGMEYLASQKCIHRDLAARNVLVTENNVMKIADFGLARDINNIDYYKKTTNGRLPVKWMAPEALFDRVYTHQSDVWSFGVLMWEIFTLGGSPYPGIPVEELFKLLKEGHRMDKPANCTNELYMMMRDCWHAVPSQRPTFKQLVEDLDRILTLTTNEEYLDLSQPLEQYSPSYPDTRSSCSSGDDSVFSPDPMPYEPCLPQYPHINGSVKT

[5] = biological target: Mitogen-activated protein kinase 12 (Homo sapiens) (UniProt P53778); assay: Inhibition of wild-type human full length p38-gamma (M1 to L367 residues) expressed in mammalian expression system assessed as residual activity at 1 uM by Kinomescan method relative to control
Mitogen-activated protein kinase 12 (Homo sapiens), sequence (P53778 whole entry, the tested form may be a part): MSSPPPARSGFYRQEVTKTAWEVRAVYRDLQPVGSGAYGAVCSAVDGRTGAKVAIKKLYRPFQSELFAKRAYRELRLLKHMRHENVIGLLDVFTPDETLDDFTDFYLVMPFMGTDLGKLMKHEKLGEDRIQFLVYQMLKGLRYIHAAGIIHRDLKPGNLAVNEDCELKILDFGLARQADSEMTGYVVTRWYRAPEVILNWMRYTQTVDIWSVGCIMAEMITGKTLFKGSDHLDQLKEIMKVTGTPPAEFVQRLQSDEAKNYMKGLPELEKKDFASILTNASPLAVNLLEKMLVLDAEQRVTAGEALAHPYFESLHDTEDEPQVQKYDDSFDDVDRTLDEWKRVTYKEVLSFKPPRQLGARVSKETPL

[6] = biological target: Serine/threonine-protein kinase Sgk3 (Homo sapiens) (UniProt Q96BR1); assay: Inhibition of wild-type human partial length SGK3 (M119 to L496 residues) expressed in mammalian expression system assessed as residual activity at 1 uM by Kinomescan method relative to control
Serine/threonine-protein kinase Sgk3 (Homo sapiens), sequence (Q96BR1 whole entry, the tested form may be a part): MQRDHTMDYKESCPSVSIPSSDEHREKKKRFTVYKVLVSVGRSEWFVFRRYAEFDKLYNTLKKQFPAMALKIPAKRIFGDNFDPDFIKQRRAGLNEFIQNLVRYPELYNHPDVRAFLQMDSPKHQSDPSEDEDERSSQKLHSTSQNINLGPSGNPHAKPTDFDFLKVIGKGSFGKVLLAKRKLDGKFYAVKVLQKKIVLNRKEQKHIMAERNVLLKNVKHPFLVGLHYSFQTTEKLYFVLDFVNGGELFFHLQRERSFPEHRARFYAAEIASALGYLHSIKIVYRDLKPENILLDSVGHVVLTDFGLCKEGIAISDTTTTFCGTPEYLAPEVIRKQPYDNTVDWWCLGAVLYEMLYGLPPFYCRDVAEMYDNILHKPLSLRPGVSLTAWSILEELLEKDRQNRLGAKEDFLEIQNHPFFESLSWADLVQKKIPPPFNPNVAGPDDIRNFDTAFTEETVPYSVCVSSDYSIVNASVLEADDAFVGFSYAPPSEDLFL

[7] = biological target: Discoidin domain-containing receptor 2 (Homo sapiens) (UniProt Q16832); assay: Inhibition of wild-type human partial length DDR2 (V555 to E855 residues) expressed in mammalian expression system assessed as residual activity at 1 uM by Kinomescan method relative to control
[8] = biological target: Mitogen-activated protein kinase kinase kinase kinase 2 (Homo sapiens) (UniProt Q12851); assay: Inhibition of wild-type human partial length MAP4K2 (M1 to G318 residues) expressed in mammalian expression system assessed as residual activity at 1 uM by Kinomescan method relative to control
[9] = biological target: Proto-oncogene tyrosine-protein kinase ROS (Homo sapiens) (UniProt P08922); assay: Inhibition of wild-type human partial length ROS1 (A1921 to N2240 residues) expressed in bacterial expression system assessed as residual activity at 1 uM by Kinomescan method relative to control
[10] = biological target: NUAK family SNF1-like kinase 1 (Homo sapiens) (UniProt O60285); assay: Inhibition of wild-type human partial length ARK5 (E25 to I332 residues) expressed in bacterial expression system assessed as residual activity at 1 uM by Kinomescan method relative to control
[11] = biological target: Serine/threonine-protein kinase ICK (Homo sapiens) (UniProt Q9UPZ9); assay: Inhibition of wild-type human partial length ICK (M1 to P314 residues) expressed in mammalian expression system assessed as residual activity at 1 uM by Kinomescan method relative to control
Serine/threonine-protein kinase ICK (Homo sapiens), sequence (Q9UPZ9 whole entry, the tested form may be a part): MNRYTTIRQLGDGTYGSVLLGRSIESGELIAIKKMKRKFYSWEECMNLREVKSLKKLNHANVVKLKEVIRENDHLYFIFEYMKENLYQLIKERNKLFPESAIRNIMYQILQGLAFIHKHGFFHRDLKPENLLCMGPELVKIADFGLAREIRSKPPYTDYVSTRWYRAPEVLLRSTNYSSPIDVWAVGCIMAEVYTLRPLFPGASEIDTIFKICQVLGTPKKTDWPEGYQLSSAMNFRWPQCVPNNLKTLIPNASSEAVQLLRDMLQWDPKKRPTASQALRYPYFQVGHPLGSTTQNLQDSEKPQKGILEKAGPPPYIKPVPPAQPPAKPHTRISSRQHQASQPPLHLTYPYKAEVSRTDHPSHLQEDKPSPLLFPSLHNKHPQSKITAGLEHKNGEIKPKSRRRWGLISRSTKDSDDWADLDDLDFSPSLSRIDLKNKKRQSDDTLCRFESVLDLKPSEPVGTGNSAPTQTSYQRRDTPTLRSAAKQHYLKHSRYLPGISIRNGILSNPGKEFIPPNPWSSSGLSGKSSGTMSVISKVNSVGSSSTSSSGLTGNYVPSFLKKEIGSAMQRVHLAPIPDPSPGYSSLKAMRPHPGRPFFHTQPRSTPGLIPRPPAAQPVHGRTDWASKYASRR

[12] = biological target: Ephrin type-B receptor 3 (Homo sapiens) (UniProt P54753); assay: Inhibition of wild-type human partial length EPHB3 (Q599 to T928 residues) expressed in bacterial expression system assessed as residual activity at 1 uM by Kinomescan method relative to control
[13] = biological target: Cytoplasmic tyrosine-protein kinase BMX (Homo sapiens) (UniProt P51813); assay: Inhibition of wild-type human full length BMX (M1 to H675 residues) expressed in bacterial expression system assessed as residual activity at 1 uM by Kinomescan method relative to control
[14] = biological target: Serine/threonine-protein kinase D2 (Homo sapiens) (UniProt Q9BZL6); assay: Inhibition of wild-type human partial length PRKD2 (A519 to E838 residues) expressed in bacterial expression system assessed as residual activity at 1 uM by Kinomescan method relative to control
Serine/threonine-protein kinase D2 (Homo sapiens), sequence (Q9BZL6 whole entry, the tested form may be a part): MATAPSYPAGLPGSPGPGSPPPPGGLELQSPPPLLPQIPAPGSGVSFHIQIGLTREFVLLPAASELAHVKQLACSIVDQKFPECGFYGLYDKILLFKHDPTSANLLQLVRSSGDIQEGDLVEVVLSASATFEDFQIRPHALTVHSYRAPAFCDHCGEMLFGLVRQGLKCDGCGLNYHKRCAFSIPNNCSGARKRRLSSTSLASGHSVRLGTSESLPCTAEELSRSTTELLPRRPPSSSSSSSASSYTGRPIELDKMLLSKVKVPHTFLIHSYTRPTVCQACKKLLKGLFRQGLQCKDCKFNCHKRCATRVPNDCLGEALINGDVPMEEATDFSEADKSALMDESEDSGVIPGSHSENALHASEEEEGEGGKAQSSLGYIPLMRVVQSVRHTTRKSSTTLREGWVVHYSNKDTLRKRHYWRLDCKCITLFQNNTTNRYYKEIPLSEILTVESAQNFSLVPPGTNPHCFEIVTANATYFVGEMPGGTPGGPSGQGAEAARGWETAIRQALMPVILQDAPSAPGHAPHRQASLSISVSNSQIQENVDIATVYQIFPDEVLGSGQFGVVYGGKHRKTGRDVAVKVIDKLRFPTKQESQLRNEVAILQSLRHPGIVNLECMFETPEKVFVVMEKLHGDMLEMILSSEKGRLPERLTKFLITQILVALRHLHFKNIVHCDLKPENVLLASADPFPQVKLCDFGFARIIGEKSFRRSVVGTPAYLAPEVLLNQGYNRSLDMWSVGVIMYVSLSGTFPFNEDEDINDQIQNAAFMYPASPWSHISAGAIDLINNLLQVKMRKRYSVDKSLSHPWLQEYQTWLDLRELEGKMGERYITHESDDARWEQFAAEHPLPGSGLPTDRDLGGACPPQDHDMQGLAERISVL

[15] = Unbound fraction in mouse blood; format: ADME, tissue-based
[16] = biological target: Fibroblast growth factor receptor 4 (Homo sapiens) (UniProt P22455); assay: Inhibition of wild-type human partial length FGFR4 (G402 to E713 residues) expressed in bacterial expression system assessed as residual activity at 1 uM by Kinomescan method relative to control
[17] = biological target: Ephrin type-A receptor 7 (Homo sapiens) (UniProt Q15375); assay: Inhibition of wild-type human partial length EPHA7 (Y608 to S912 residues) expressed in bacterial expression system assessed as residual activity at 1 uM by Kinomescan method relative to control
[18] = biological target: Angiopoietin-1 receptor (Homo sapiens) (UniProt Q02763); assay: Inhibition of wild-type human partial length TIE2 (N804 to T1112 residues) expressed in bacterial expression system assessed as residual activity at 1 uM by Kinomescan method relative to control
[19] = biological target: Serine/threonine-protein kinase Sgk2 (Homo sapiens) (UniProt Q9HBY8); assay: Inhibition of wild-type human partial length SGK2 (L54 to C427 residues) expressed in mammalian expression system assessed as residual activity at 1 uM by Kinomescan method relative to control
[20] = biological target: Tyrosine-protein kinase Mer (Homo sapiens) (UniProt Q12866); assay: Inhibition of wild-type human partial length c-MER (R557 to L884 residues) expressed in bacterial expression system assessed as residual activity at 1 uM by Kinomescan method relative to control
Tyrosine-protein kinase Mer (Homo sapiens), sequence (Q12866 whole entry, the tested form may be a part): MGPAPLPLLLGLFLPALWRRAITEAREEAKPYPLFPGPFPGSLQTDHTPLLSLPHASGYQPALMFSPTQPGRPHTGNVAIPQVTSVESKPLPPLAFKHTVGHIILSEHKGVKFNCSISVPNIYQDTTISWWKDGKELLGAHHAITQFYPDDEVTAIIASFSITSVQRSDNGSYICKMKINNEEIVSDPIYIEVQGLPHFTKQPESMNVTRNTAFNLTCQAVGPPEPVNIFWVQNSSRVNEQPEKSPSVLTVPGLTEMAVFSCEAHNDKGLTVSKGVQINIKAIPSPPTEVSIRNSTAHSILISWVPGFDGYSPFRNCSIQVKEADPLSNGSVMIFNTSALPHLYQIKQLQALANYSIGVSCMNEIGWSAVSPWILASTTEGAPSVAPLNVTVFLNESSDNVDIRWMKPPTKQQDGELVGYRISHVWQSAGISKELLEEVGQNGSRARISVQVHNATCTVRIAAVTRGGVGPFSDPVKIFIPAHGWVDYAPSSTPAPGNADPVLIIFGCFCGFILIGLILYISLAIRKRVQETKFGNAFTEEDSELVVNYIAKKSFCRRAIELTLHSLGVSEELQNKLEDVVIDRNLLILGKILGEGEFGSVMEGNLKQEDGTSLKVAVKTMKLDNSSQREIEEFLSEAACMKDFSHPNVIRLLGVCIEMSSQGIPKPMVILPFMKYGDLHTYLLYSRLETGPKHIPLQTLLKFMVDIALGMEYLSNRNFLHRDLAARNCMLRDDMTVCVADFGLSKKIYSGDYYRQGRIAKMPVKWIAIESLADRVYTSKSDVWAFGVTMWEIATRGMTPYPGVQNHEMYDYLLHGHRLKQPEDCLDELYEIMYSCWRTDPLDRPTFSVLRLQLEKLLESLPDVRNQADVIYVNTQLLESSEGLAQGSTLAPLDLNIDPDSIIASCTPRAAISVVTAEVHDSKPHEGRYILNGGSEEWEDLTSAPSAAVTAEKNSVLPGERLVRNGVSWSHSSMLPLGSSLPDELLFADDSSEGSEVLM

[21] = In vivo inhibition of LRRK2 in C57BL6 mouse assessed as reduction in Ser935 phosphorylation in kidney at 45 mg/kg, po after 1 hr by Western blot analysis; format: functional; design: scale not given: the % may be the effect or the level left
[22] = biological target: Homeodomain-interacting protein kinase 2 (Homo sapiens) (UniProt Q9H2X6); assay: Inhibition of wild-type human partial length HIPK2 (M153 to S564 residues) expressed in mammalian expression system assessed as residual activity at 1 uM by Kinomescan method relative to control
[23] = biological target: SRSF protein kinase 1 (Homo sapiens) (UniProt Q96SB4); assay: Inhibition of wild-type human full length SRPK1 (M1 to S655 residues) expressed in bacterial expression system assessed as residual activity at 1 uM by Kinomescan method relative to control
[24] = biological target: Mitogen-activated protein kinase kinase kinase 9 (Homo sapiens) (UniProt P80192); assay: Inhibition of wild-type human partial length MLK1 (V88 to W426 residues) expressed in bacterial expression system assessed as residual activity at 1 uM by Kinomescan method relative to control
[25] = biological target: Insulin receptor (Homo sapiens) (UniProt P06213); assay: Inhibition of IR (unknown origin)assessed as residual activity at 1 uM by Kinomescan method relative to control
[26] = Lipophilicity, logD of compound at pH 7.4; details: buffer
[27] = biological target: Mitogen-activated protein kinase 11 (Homo sapiens) (UniProt Q15759); assay: Inhibition of wild-type human full length p38-beta (M1 to Q364 residues) expressed in bacterial expression system assessed as residual activity at 1 uM by Kinomescan method relative to control
[28] = biological target: Voltage-gated inwardly rectifying potassium channel KCNH2 (Homo sapiens, UniProt Q12809); assay: Inhibition of human ERG
[29] = biological target: G protein-coupled receptor kinase 5 (Homo sapiens) (UniProt P34947); assay: Inhibition of GRK5 (unknown origin) assessed as residual activity at 1 uM by Kinomescan method relative to control

Tyrosine-protein kinase Fyn (Homo sapiens), sequence (P06241 2-537 limits assumed): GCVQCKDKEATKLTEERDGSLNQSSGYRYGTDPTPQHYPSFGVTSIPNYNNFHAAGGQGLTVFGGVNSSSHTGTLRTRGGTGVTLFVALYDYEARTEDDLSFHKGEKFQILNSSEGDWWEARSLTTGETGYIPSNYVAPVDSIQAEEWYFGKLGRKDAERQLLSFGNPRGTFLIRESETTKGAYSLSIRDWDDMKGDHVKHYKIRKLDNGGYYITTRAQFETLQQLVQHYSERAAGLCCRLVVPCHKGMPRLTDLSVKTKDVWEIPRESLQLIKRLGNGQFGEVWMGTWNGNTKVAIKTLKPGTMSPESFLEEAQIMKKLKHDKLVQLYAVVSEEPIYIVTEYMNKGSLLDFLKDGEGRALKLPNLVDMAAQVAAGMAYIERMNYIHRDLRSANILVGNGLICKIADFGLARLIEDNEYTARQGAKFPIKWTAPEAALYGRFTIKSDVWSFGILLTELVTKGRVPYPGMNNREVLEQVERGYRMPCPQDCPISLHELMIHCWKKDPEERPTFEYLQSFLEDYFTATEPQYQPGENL

Q: Which Activity [1] does the source give for `CCOc1nc(Nc2ccc(C(=O)N3CCOCC3)cc2OC)nc2[nH]ccc12` here?
A: 109%

Q: What about the fraction unbound [2] of the same compound?
A: 0.059

Q: And the Activity [3]?
A: 97.9%

Q: What about the Activity [4] of the same compound?
A: 111%

Q: And the Activity [5]?
A: 103%

Q: What about the Activity [6] of the same compound?
A: 93.7%

Q: And the Activity [7]?
A: 95.7%

Q: And the Activity [8]?
A: 90.2%

Q: What about the Activity [9] of the same compound?
A: 52.5%

Q: What about the Activity [10] of the same compound?
A: 47.6%

Q: And the Activity [11]?
A: 104%

Q: And the Activity [12]?
A: 94.4%

Q: What about the Activity [13] of the same compound?
A: 92.5%

Q: What about the Activity [14] of the same compound?
A: 62.1%

Q: What about the fraction unbound [15] of the same compound?
A: 0.031

Q: And the Activity [16]?
A: 83.7%

Q: And the Activity [17]?
A: 97.8%

Q: And the Activity [18]?
A: 108%

Q: And the Activity [19]?
A: 88.7%

Q: And the Activity [20]?
A: 97%

Q: What about the Activity [21] of the same compound?
A: 80%

Q: What about the Activity [22] of the same compound?
A: 100%

Q: What about the Activity [23] of the same compound?
A: 87.4%

Q: And the Activity [24]?
A: 83.9%

Q: What about the Activity [25] of the same compound?
A: 14.9%

Q: And the logD [26]?
A: 4.5

Q: And the Activity [27]?
A: 101%

Q: What about the IC50 [28] of the same compound?
A: > 63.1 µM

Q: What about the Activity [29] of the same compound?
A: 92.6%
